Assay results reported in patent US9296697B2, “Hetaryl-substituted guanidine compounds and use thereof as binding partners for 5-HT5-receptors” (Abbott Laboratories, priority 2005, dated 2016).
Counter-ions that a name gives are not always drawn.

target: T1, h5-HT5A receptor (Homo sapiens, UniProt P47898); assay: h5-HT5A [3H]5-CT binding assay; settings: affinity for 5-HT5A; membranes of HEK293 cells expressing the h5-HT5A receptor gene, 2.5 nM [3H]5-CT
T1 construct: expressed in transfected cells; membranes used
T1 sequence (P47898 whole entry): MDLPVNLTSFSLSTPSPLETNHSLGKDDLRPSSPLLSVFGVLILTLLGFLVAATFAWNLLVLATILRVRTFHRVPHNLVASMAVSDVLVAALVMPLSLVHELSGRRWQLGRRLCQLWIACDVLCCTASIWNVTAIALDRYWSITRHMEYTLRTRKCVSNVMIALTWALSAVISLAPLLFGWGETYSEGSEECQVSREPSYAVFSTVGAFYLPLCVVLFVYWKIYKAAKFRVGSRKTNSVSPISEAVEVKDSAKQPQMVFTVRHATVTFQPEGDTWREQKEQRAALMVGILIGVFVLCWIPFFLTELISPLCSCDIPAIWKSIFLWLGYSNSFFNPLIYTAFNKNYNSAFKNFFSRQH
Method: h5-HT5A [^3H]5-CT Binding Assay
Membranes of HEK293 cells which permanently express the h5-HT5A receptor gene were incubated in 100 mM tris-HCl buffer (pH 7.7) containing 1 mM EDTA, in the presence of 2.5 nM [^3H]5-CT (total volume 600 μL). The total binding is defined as the binding that is observed when the membranes are incubated in the presence of only the radioligand. The inhibition induced by the compound is determined by incubation of cell membranes in the presence of the radioligand and various concentrations of the compound of interest. Nonspecific binding is defined as the [^3H]5-CT binding obtained by incubation of the membranes, the same as for the total binding, but in the presence of 10 μM methiothepine. Following incubation for 75 min at 30° C., the membrane suspension was filtered through a GF/B-Filter coated with 0.03% PEI, using a Skatron® harvesting system. The residual radioactivity in the filter was quantified by liquid scintillation counting.
Various concentrations of the test substances were used in both assays, and the Ki or IC50 values were determined.

Structure (SMILES)	Ki [nM]
COc1cccc(OC)c1CNC(=N)Nc1ccc(I)cn1 [Example 3, N-(2,6-dimethoxybenzyl)-N′-(5-iodopyridin-2-yl)guanidine]	< 100
COc1ccccc1CN=C(N)Nc1ccc(I)cn1 [Example 4, N-(5-Iodopyridin-2-yl)-N″-(2-methoxybenzyl)guanidine]	< 100
COc1cccc(OC)c1CNC(=N)Nc1ccccn1 [Example 5, N-(2,6-dimethoxybenzyl)-N′-pyridin-2-yl-guanidine acetate]	< 100
COc1cccc(OC)c1CNC(=N)Nc1cccc(C)n1 [Example 9, N-(2,6-dimethoxybenzyl)-N′-(6-methylpyridin-2-yl)guanidine]	< 100
COc1ccccc1CNC(=N)Nc1ncc(C(F)(F)F)cc1Cl [Example 10, N-[3-Chloro-5-(trifluoromethyl)pyridin-2-yl]-N′-(2-methoxybenzyl)guanidine acetate]	< 10000
COc1cccc(OC)c1CNC(=N)Nc1ncc(C(F)(F)F)cc1Cl [Example 11, N-[3-Chloro-5-(trifluoromethyl)pyridin-2-yl]-N′-(2,6-dimethoxybenzyl)guanidine acetate]	< 10000
COc1cccc(OC)c1CNC(=N)Nc1ncccc1C [Example 13, N-(2,6-Dimethoxybenzyl)-N′-(3-methylpyridin-2-yl)guanidine acetate]	< 100
COc1ccccc1CNC(=N)Nc1nccc(-c2cccs2)n1 [Example 14, N-(2-Methoxybenzyl)-N′-(4-(2-thienyl)pyrimidin-2-yl]guanidine acetate]	< 10000
COc1cccc(OC)c1CNC(=N)Nc1nccc(-c2cccs2)n1 [Example 15, N-(2,6-Dimethoxybenzyl)-N′-[4-(2-thienyl)pyrimidin-2-yl]guanidine acetate]	< 100
COc1ccccc1CNC(=N)Nc1cnc2ccccc2c1 [Example 16, N-(2-Methoxybenzyl)-N′-quinolin-3-yl-guanidine acetate]	< 10000
COc1cccc(OC)c1CNC(=N)Nc1cnc2ccccc2c1 [Example 17, N-(2,6-Dimethoxybenzyl)-N′-quinolin-3-yl-guanidine acetate]	< 100
COc1cccc(OC)c1CNC(=N)Nc1cc(C)ccn1 [Example 30, N-(2,6-Dimethoxybenzyl)-N′-(4-methylpyridin-2-yl)guanidine acetate]	< 100
COc1cccc(Cl)c1CNC(=N)Nc1ncccc1C [Example 31, N-(2-Chloro-6-methoxybenzyl)-N′-(3-methylpyridin-2-yl)guanidine]	< 100
COc1cccc(F)c1CNC(=N)Nc1ncccc1C [Example 32, N-(2-Fluoro-6-methoxybenzyl)-N′-(3-methylpyridin-2-yl)guanidine]	< 100
COc1cccc(C)c1CNC(=N)Nc1ncccc1C [Example 33, N-(2-Methoxy-6-methylbenzyl)-N′-(3-methylpyridin-2-yl)guanidine]	< 100
COc1ccccc1CNC(=N)Nc1cccnc1 [Example 34, N-(2-Methoxybenzyl)-N′-pyridin-3-yl-guanidine acetate]	< 10000
COc1ccccc1CNC(=N)Nc1ccc[n+](C)c1 [Example 35, 3-({Imino[(2-methoxybenzyl)amino]methyl}amino)-1-methylpyridinium acetate]	< 10000
COc1ccccc1CNC(=N)Nc1ncccn1 [Example 36, N-(2-Methoxybenzyl)-N′-pyrimidin-2-yl-guanidine acetate]	< 10000
COc1cccc(OC)c1CNC(=N)Nc1ncccn1 [Example 37, N-(2,6-Dimethoxybenzyl)-N′-pyrimidin-2-ylguanidine]	< 100
COc1cccc(OC)c1CNC(=N)Nc1cc2ccccc2cn1 [Example 39, N-(2,6-Dimethoxybenzyl)-N′-isoquinolin-3-ylguanidine]	< 100
COc1cccc(OC)c1CNC(=N)Nc1ccc2ccccc2n1 [Example 41, N-(2,6-Dimethoxybenzyl)-N′-quinolin-2-yl-guanidine acetate]	< 100
COc1cccc(OC)c1CNC(=N)Nc1cccc(Br)n1 [Example 43, N-(6-Bromopyridin-2-yl)-N′-(2,6-dimethoxybenzyl)guanidine]	< 100
COc1cccc(OC)c1CNC(=N)Nc1cc(Br)ccn1 [Example 44, N-(4-Bromopyridin-2-yl)-N′-(2,6-dimethoxybenzyl)guanidine]	< 100
COc1cccc(OC)c1CNC(=N)Nc1ncccc1Br [Example 46, N-(3-Bromopyridin-2-yl)-N′-(2,6-dimethoxybenzyl)guanidine acetate]	< 100
COc1ccccc1CNC(=N)Nc1cccc(-c2ccc(OC(F)(F)F)cc2)n1 [Example 48, N-(2-Methoxybenzyl)-N′-{6-[4-(trifluoromethoxy)phenyl]pyridin-2-yl}guanidine]	< 10000
COc1ccccc1CNC(=N)Nc1cccc(-c2cccs2)n1 [Example 49, N-(2-Methoxybenzyl)-N′-[6-(2-thienyl)pyridin-2-yl]guanidine]	< 100
COc1ccccc1CNC(=N)Nc1cccc(-c2ccc(F)cc2)n1 [Example 50, N-[6-(4-Fluorophenyl)pyridin-2-yl]-N′-(2-methoxybenzyl)guanidine]	< 300
COc1ccccc1CNC(=N)Nc1cccc(-c2ccccc2)n1 [Example 51, N-(2-Methoxybenzyl)-N′-(6-phenylpyridin-2-yl)guanidine acetate]	< 100

Further lines, results first:

Ki [nM]	Structure (SMILES)
< 100	COc1ccccc1CNC(=N)Nc1ccccn1 [Example 1, N-(2-methoxybenzyl)-N′-pyridin-2-yl-guanidine acetate]
< 100	COc1ccccc1CNC(=N)Nc1ccc(C)cn1 [Example 6, N-(2-methoxybenzyl)-N′-(5-methylpyridin-2-yl)guanidine acetate]
< 100	COc1cccc(OC)c1CNC(=N)Nc1ccc(C)cn1 [Example 7, N-(2,6-dimethoxybenzyl)-N′-(5-methylpyridin-2-yl)guanidine]
< 100	COc1ccccc1CNC(=N)Nc1cccc(C)n1 [Example 8, N-(2-Methoxybenzyl)-N′-(6-methylpyridin-2-yl)guanidine]
< 100	COc1ccccc1CNC(=N)Nc1ncccc1C [Example 12, N-(2-Methoxybenzyl)-N′-(3-methylpyridin-2-yl)guanidine acetate]
< 100	COc1cccc(Cl)c1CNC(=N)Nc1ccc(C)cn1 [Example 18, N-(2-Chloro-6-methoxybenzyl)-N′-(5-methylpyridin-2-yl)guanidine acetate]
< 100	COc1cccc(C)c1CNC(=N)Nc1ccc(C)cn1 [Example 19, N-(2-Methoxy-6-methylbenzyl)-N′-(5-methylpyridin-2-yl)guanidine]
< 100	COc1cccc(F)c1CNC(=N)Nc1ccc(C)cn1 [Example 20, N-(2-Fluoro-6-methoxybenzyl)-N′-(5-methylpyridin-2-yl)guanidine acetate]
< 300	Cc1ccc(NC(=N)NCc2ccccc2Cl)nc1 [Example 21, N-(2-Chlorobenzyl)-N′-(5-methylpyridin-2-yl)guanidine]
< 100	CCOc1ccccc1CNC(=N)Nc1ccc(C)cn1 [Example 22, N-(2-Ethoxybenzyl)-N′-(5-methylpyridin-2-yl)guanidine acetate]
< 100	Cc1ccc(NC(=N)NCc2ccccc2OC(C)C)nc1 [Example 23, N-(2-Isopropoxybenzyl)-N′-(5-methylpyridin-2-yl)guanidine acetate]
< 100	Cc1ccc(NC(=N)NCc2ccccc2OC(F)(F)F)nc1 [Example 24, N-(5-Methylpyridin-2-yl)-N′-[2-(trifluoromethoxy)benzyl]guanidine]
< 300	CCc1ccccc1CNC(=N)Nc1ccc(C)cn1 [Example 25, N-(2-Ethylbenzyl)-N′-(5-methylpyridin-2-yl)guanidine]
< 100	Cc1ccc(NC(=N)NCc2ccccc2OC(F)F)nc1 [Example 26, N-[2-(Difluoromethoxy)benzyl]-N′-(5-methylpyridin-2-yl)guanidine]
< 100	Cc1ccc(NC(=N)NCc2c(Cl)cccc2Oc2ccccc2)nc1 [Example 27, N-(2-Chloro-6-phenoxybenzyl)-N′-(5-methylpyridin-2-yl)guanidine acetate]
< 100	Cc1ccc(NC(=N)NCc2ccccc2Oc2ccccc2)nc1 [Example 28, N-(5-Methylpyridin-2-yl)-N′-(2-phenoxybenzyl)guanidine hydrochloride]
< 100	COc1ccccc1CNC(=N)Nc1cc(C)ccn1 [Example 29, N-(2-Methoxybenzyl)-N′-(4-methylpyridin-2-yl)guanidine acetate]
< 100	COc1ccccc1CNC(=N)Nc1cc2ccccc2cn1 [Example 38, N-Isoquinolin-3-yl-N′-(2-methoxybenzyl)guanidine]
< 100	COc1ccccc1CNC(=N)Nc1ccc2ccccc2n1 [Example 40, N-(2-Methoxybenzyl)-N′-quinolin-2-yl-guanidine acetate]
< 100	COc1ccccc1CNC(=N)Nc1cccc(Br)n1 [Example 42, N-(6-Bromopyridin-2-yl)-N′-(2-methoxybenzyl)guanidine]
< 100	COc1ccccc1CNC(=N)Nc1cc(Br)ccn1 [Example 45, N-(4-Bromopyridin-2-yl)-N′-(2-methoxybenzyl)guanidine]
< 10000	COc1ccccc1CNC(=N)Nc1ncccc1Br [Example 47, N-(3-Bromopyridin-2-yl)-N′-(2-methoxybenzyl)guanidine acetate]
